Results: patent US20250092067A1, “APT1 and APT2 Inhibitors and Uses Thereof” (Cornell University, priority 2021, published 2025)
Values joined by “and” are separate entries in the source; they are usually repeats but may differ in a detail not shown here. Equal values may be shown once. Read-outs that look alike come from different tables or passages of the source.

Tests used:
APT2 [1] = target: T1, APT2 (Homo sapiens, UniProt O95372); assay: APT2 enzymatic assay, resorufin acetate as fluorogenic substrate; format: biochemical; parameters: made in house; host or cells: E. coli BL21 (DE3)
APT1 [2] = target: T2, APT1 (Homo sapiens, UniProt O75608); assay: APT1 enzymatic assay, resorufin acetate as fluorogenic substrate; format: biochemical
T2 construct: made in house; host or cells: E. coli BL21 (DE3)

APT1 [3] = target: T2, APT1; assay: Competitive in vitro ABPP with TAMRA-FP, cell lysate spiked with APT1; format: binding; settings: qualitative, FIG. 6C
APT2 [4] = target: T1, APT2; assay: Gel filtration assay to identify covalent inhibitors (TAMRA-FP labeling); format: biochemical; parameters: expressed in transfected cells; host or cells: HEK 293T
[5] = 50 mg/kg daily injection
DSS induced colitis = assay: Dextran sodium sulfate (DSS) induced colitis model; format: in vivo, mice; settings: for lengths of the colons compared to the control groups / colon length longer than the control group / colon length difference to control: 50 mg/kg intraperitoneal; for lengths of the colons compared to the control groups: 2.5% DSS, all groups; for body weight loss / colon length longer than the control group: female mice; for difference in body weight / colon length difference to control: male mice
APT2 [6] = target: T1, APT2; assay: Competitive in vitro ABPP with TAMRA-FP, cell lysate spiked with APT2; format: binding; parameters: made in house; host or cells: E. coli BL21 (DE3); settings: for inhibition at 90 µM: inhibitor at 90 μM
STAT3 palmitoylation [7] = assay: STAT3 palmitoylation in HEK 293T cells expressing STAT3 and DHHC7 (endogenous APT2); format: cell-based; settings: 16-hour treatment; for palmitoylation signal of STAT3: 50 μM
off target proteins = assay: TAMRA-FP ABPP in APT2 spiked cell lysate, other bands (off targets); format: binding; settings: FIG. 8
STAT3 palmitoylation [8] = assay: STAT3 palmitoylation in HEK 293T cells transfected with STAT3, APT2 and DHHC7; format: cell-based; settings: inhibitors at 25 μM for 16 hours
SMAD2 palmitoylation = SMAD2 palmitoylation in HEK 293T cells (Alk14 labeling, in-gel fluorescence); format: cell-based; settings: inhibitors at 25 μM, 6 h
HEK 293T cells = assay: Cell viability of HEK 293T cells; settings: at 50 mM (so in the source)
[9] = Table 1, resorufin acetate as the substrate, read-out: IC50 (μM) APT2
[10] = Table 2, class symbols, read-out: IC50 (μM) APT2
[11] = Table 1, resorufin acetate as the substrate, read-out: IC50 (μM) APT1
[12] = Table 2, class symbols, read-out: IC50 (μM) APT1
[13] = Example 3 (FIG. 4), 15 min pre-incubation, read-out: IC50 APT2
[14] = read-out: inhibition of TAMRA-FP fluorescent labeling of APT2
[15] = Example 3 (FIG. 4), 15 min pre-incubation

T1 sequence (O95372 whole entry): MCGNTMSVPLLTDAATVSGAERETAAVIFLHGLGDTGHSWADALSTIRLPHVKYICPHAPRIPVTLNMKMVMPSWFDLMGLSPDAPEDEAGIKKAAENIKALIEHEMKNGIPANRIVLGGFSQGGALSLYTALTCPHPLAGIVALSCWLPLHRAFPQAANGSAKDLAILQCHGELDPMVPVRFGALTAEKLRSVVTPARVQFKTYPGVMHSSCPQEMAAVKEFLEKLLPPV
T2 sequence (O75608 whole entry): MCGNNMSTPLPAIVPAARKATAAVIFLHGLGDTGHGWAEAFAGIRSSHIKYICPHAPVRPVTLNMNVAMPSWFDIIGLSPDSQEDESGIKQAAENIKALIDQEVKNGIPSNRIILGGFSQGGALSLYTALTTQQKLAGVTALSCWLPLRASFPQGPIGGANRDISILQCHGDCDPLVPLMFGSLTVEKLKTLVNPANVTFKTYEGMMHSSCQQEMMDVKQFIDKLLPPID

Row | IC50 (APT2 [1]; [9]) [µM] | IC50 (APT2 [1]; [10]) [µM] | IC50 (APT1 [2]; [11]) [µM] | IC50 (APT1 [2]; [12]) [µM] | Structure (SMILES) | other results
1 | 0.836 | 0.1 to 1 | > 200 | > 40 | CCCOc1ccc(N2CCN(C(=O)c3cc4c(s3)-c3ccccc3S(=O)(=O)C4)CC2)cc1 [APT-MY1] | 
2 | 2.03 | 1 to 40 | > 200 | > 40 | CCCCCCOc1ccc(N2CCN(C(=O)c3cc4c(s3)-c3ccccc3S(=O)(=O)C4)CC2)cc1 [APT-MY2] | 
3 | > 200 | > 40 | > 200 | > 40 | CCCNC(=O)c1cc2c(s1)-c1ccccc1S(=O)(=O)C2 [APT-MY3, N-Propyl-4H-thieno[3,2-c]thiochromene-2-carboxamide 5,5-dioxide] | 
4 | 3.99 | 1 to 40 | > 200 | > 40 | CCCCCCN1CCN(C(=O)c2cc3c(s2)-c2ccccc2S(=O)(=O)C3)CC1 [APT-MY4, (5,5-dioxido-4H-thieno[3,2-c]thiochromen-2-yl) (4-hexylpiperazin-1-yl) methanone] | 
5 | > 200 | > 40 | > 200 | > 40 | Cc1ccc(NC(=O)c2cc3c(s2)-c2ccccc2S(=O)(=O)C3)cc1 [APT-MY5, N-(p-tolyl)-4H-thieno[3,2-c]thiochromene-2-carboxamide 5,5-dioxide] | 
6 | > 200 | > 40 | > 200 | > 40 | CCCCCCCCc1ccc(NC(=O)c2cc3c(s2)-c2ccccc2S(=O)(=O)C3)cc1 [APT-MY6, N-(4-octylphenyl)-4H-thieno[3,2-c]thiochromene-2-carboxamide 5,5-dioxide] | 
7 | > 200 | > 40 | > 200 | > 40 | CCCCCCCCNC(=O)c1cc2c(s1)-c1ccccc1S(=O)(=O)C2 [APT-MY7, N-octyl-4H-thieno[3,2-c]thiochromene-2-carboxamide 5,5-dioxide] | 
8 |  |  | > 200 | > 40 | COc1ccc(N2CCN(C(=O)c3cc4c(s3)-c3ccccc3[S+]([O-])C4)CC2)cc1 (centres unmarked) [APT-MY8] | 
9 |  |  |  |  | COc1ccc(N2CCN(C(=O)c3cc4cc(B(O)O)c5ccccc5c4s3)CC2)cc1 [KW5129, (2-(4-(4-Methoxyphenyl)piperazine-1-carbonyl)naphtho[1,2-b]thiophen-5-yl)boronic acid] | IC50 (APT2 [1]; [13]): 0.079 µM; more potent at inhibiting APT2 compared with ML349 (APT2 [1]; relative to ML349): ~9 times; inhibition of APT1 in competitive ABPP (APT1 [3]): could also inhibit APT1; mode of APT2 inhibition (covalent or non-covalent) (APT2 [4]; from gel filtration assay): non-covalent inhibitor; TAMRA-FP fluorescent labeling of APT2 after gel filtration (APT2 [4]; lysate treated with inhibitor, passed over size exclusion column): almost complete fluorescent labeling after just one gel filtration; tolerability in mice [5]: well tolerated; APT1 IC50 higher than APT2 IC50 (APT1 [2]; APT1 IC50 versus APT2 IC50): about 5.2 fold; IC50 (APT1 [2]; Example 3 (FIG. 4), 15 min pre-incubation, read-out: IC50 APT1): 0.41 µM; lengths of the colons compared to the control groups (DSS induced colitis): significant increase; body weight loss (DSS induced colitis): less severe; colon length longer than the control group (DSS induced colitis): 1.4 cm; difference in body weight (DSS induced colitis): no statistically significant difference; colon length difference to control (DSS induced colitis): ~0.5 cm; inhibition at 90 µM (APT2 [6]; [14]): ~90%; inhibition of TAMRA-FP fluorescent labeling of APT2 (APT2 [6]; inhibitor at 270 μM): almost completely abolished; palmitoylated STAT3 (STAT3 palmitoylation [7]; 25 μM): significant increase; palmitoylation signal of STAT3 (STAT3 palmitoylation [7]): more potent; change of fluorescent intensity in bands other than APT2 (off target reaction) (off target proteins): only seen in the APT2 band
10 |  |  |  |  | COc1ccc(N2CCN(C(=O)c3cc4cc(O)c5ccccc5c4s3)CC2)cc1 [KW5130, (5-Hydroxynaphtho[1,2-b]thiophen-2-yl) (4-(4-methoxyphenyl)piperazin-1-yl) methanone] | IC50 (APT2 [1]; [13]): ~5 µM
11 |  |  |  |  | COc1ccc(N2CCN(C(=O)c3ccc(-c4ccccc4B(O)O)s3)CC2)cc1 [KW5175, (2-(5-(4-(4-methoxyphenyl)piperazine-1-carbonyl)thiophen-2-yl)phenyl)boronic acid] | IC50 APT2 (APT2 [1]; [15]): much less potent
12 | 16.1 | 1 to 40 |  |  | COc1ccc(N2CCN(C(=O)c3ccc(-c4ccccc4B(O)O)s3)CC2)cc1 [KW05175] | 
13 |  |  |  |  | COc1ccc(N2CCN(C(=O)c3cc4cc(S(=O)(=O)F)c5ccccc5c4s3)CC2)cc1 [KW5191, 2-(4-(4-Methoxyphenyl)piperazine-1-carbonyl)naphtho[1,2-b]thiophene-5-sulfonyl fluoride] | IC50 (APT2 [1]; IC50 APT2): 1.8 µM
14 |  |  |  |  | COc1ccc(N2CCN(C(=O)c3cc4cc(S(=O)(=O)F)c5ccccc5c4s3)CC2)cc1 [KW05191] | IC50 (APT2 [1]; IC50 (μM) APT2): 1.77 µM and 1 to 40 µM
15 |  |  |  |  | COc1ccc(N2CCN(C(=O)c3cc(B(O)O)cs3)CC2)cc1 [KW5192, (5-(4-(4-Methoxyphenyl)piperazine-1-carbonyl)thiophen-3-yl)boronic acid] | IC50 (APT2 [1]; [13]): 1.1 µM
16 | 1.06 | 1 to 40 |  |  | COc1ccc(N2CCN(C(=O)c3cc(B(O)O)cs3)CC2)cc1 [KW05192] | 
17 | > 200 | > 40 |  |  | O=C(CN1CCN(C(=O)c2ccco2)CC1)Nc1cc(C(F)(F)F)ccc1Cl [ML348, reference compound] | 
18 | 0.675 | 0.1 to 1 | > 200 | > 40 | COc1ccc(N2CCN(C(=O)c3cc4c(s3)-c3ccccc3S(=O)(=O)C4)CC2)cc1 [ML349, reference compound] | STAT3 palmitoylation level (acylation normalized by STAT3 protein) (STAT3 palmitoylation [8]): increase STAT3 palmitoylation levels; effect on cell viability (HEK 293T cells): no effect; APT2 selectivity / inhibition of APT1 (APT1 [2]; qualitative, FIG. 4): selective for APT2; lengths of the colons compared to the control groups (DSS induced colitis): significant increase; body weight loss (DSS induced colitis): less severe; colon length longer than the control group (DSS induced colitis): 1.4 cm; difference in body weight (DSS induced colitis): no statistically significant difference; colon length difference to control (DSS induced colitis): ~0.5 cm; inhibition at 90 µM (APT2 [6]; [14]): ~70%; inhibition at 270 µM (APT2 [6]; inhibitor at 270 μM, read-out: inhibition of TAMRA-FP fluorescent labeling of APT2): ~70%; palmitoylation signal of STAT3 (STAT3 palmitoylation [7]): slightly increased; change of fluorescent intensity in bands other than APT2 (off target reaction) (off target proteins): only seen in the APT2 band
19 |  |  |  |  | CCCOc1ccc(N2CCN(C(=O)c3cc4c(s3)-c3ccccc3S(=O)(=O)C4)CC2)cc1 [MY1, (5,5-Dioxido-4H-thieno[3,2-c]thiochromen-2-yl) (4-(4-propoxyphenyl)piperazin-1-yl) methanone] | IC50 APT2 (APT2 [1]; [15]): did not improve the potency
20 |  |  |  |  | CCCCCCOc1ccc(N2CCN(C(=O)c3cc4c(s3)-c3ccccc3S(=O)(=O)C4)CC2)cc1 [MY2, (5,5-dioxido-4H-thieno[3,2-c]thiochromen-2-yl) (4-(4-(hexyloxy)phenyl)piperazin-1-yl) methanone] | IC50 APT2 (APT2 [1]; [15]): did not improve the potency

Row | Structure (SMILES) | IC50 (APT2 [1]; [9]) [µM] | IC50 (APT2 [1]; [10]) [µM] | IC50 (APT1 [2]; [11]) [µM] | IC50 (APT1 [2]; [12]) [µM] | other results
21 | COc1ccc(N2CCN(C(=O)c3cc4cc(B(O)O)c5ccccc5c4s3)CC2)cc1 [KW05129] | 0.079 | < 0.1 | 0.19 | 0.1 to 1 | STAT3 palmitoylation level (acylation normalized by STAT3 protein) (STAT3 palmitoylation [8]): slightly better than ML349; time-dependent inhibition of APT2 (APT2 [1]; pre-incubation 30 min versus standard): not observed; APT2 IC50 lower than that of ML349 (APT2 [1]; relative to ML349): 8.54 fold; SMAD2 palmitoylation level (SMAD2 palmitoylation): slightly better than ML349; effect on cell viability (HEK 293T cells): no effect
